{"source": "patent US12605382B2", "about": "“Pharmaceutical composition for preventing, alleviating, or treating cancer containing 2,6-dichloro-4-(4-(4-hydroxycyclohexylamino)-7H- pyrrolo[2,3-d]pyrimidin-5-yl)phenol as active ingredient” (JBKLAB CO., LTD., priority 2021, dated 2026)", "key": {"[1]": {"system": "tumor tissues (MDA-MB-231)", "assay": "Number of apoptotic bodies in tumor tissues", "type": "in vivo, BALB/c-nude mice", "settings": "for number of apoptotic body: sum of five areas at ×400", "method": "An experiment was performed to confirm the tumor necrosis effect of the compound of Example 1, the active ingredient of the pharmaceutical composition of the present invention, by measuring the number of apoptotic bodies in tumors and H&E staining of the tumor tissues in BALB/c-nude mice injected with cancer cell lines.\nSpecifically, to measure the number of apoptotic bodies in the tumor tissues of the T4, T5, and T6 groups of Experimental Example 1, five areas where the tumor tissues were growing were randomly selected and the number of apoptotic bodies was measured at ×400 magnification. The sum of the measurements was calculated, expressed as individual values, and statistically compared using GraphPad Prism 5."}, "[2]": {"system": "CD8+ T cells", "assay": "Flow cytometric analysis (FACS) of tumor tissue, 4T1 allograft model", "type": "in vivo, BALB/c mice", "settings": "31 days", "method": "(§1) The tumor tissues from each mouse were subjected to single cell isolation, followed by flow cytometric analysis (FACS) to confirm the immunomodulatory effect.\n(§2) Specifically, the spleen and tumor of the mouse were extracted 31 days after tumor cell injection in the same manner as in Example 8. After the tumor tissue was excised, it was mechanically processed by fine chopping using a sterilized razor blade, and then treated with DNase (0.1 mg/ml) and collagenase (1 mg/ml), respectively, and reacted at 36° C. for 30 minutes to obtain a single cell suspension. To analyze infiltrating leukocytes after isolation of single cells from the tumor tissue, […] cells per FACS tube were stained with FITC, PE, PerCP/Cy5.5, and APC fluorescence using CD3 antibody, CD8b antibody, CD4 antibody, CD11b antibody, F4/80 antibody, and CD206 antibody. For each stained sample, the fraction of CD8+ cytotoxic T cells was calculated using BD Bioscience FACSCalibur machines. Analysis of the FACS results was performed using FlowJo software, version 10."}, "[3]": {"system": "M1 TAM", "assay": "Flow cytometric analysis (FACS) of tumor tissue, 4T1 allograft model", "type": "in vivo, BALB/c mice", "method": "as §1, §2"}, "[4]": {"system": "M2 TAM", "assay": "Flow cytometric analysis (FACS) of tumor tissue, 4T1 allograft model", "type": "in vivo, BALB/c mice", "method": "as §1, §2"}, "[5]": {"system": "Huh-7", "assay": "Cell viability alone and in combination with sorafenib", "type": "cell-based, Human", "method": "(§3) Human liver cancer cell lines (SK Hep1 and Huh-7) were treated with control (no treatment), 0.1 μM of the compound of Example 1, 1 μM of sorafenib, and 0.1 μM of the compound of Example 1/1 μM of sorafenib, and the cell viability of SK Hep1 and Huh-7 was confirmed."}, "[6]": {"system": "SK Hep1", "assay": "Cell viability alone and in combination with sorafenib", "type": "cell-based, Human", "method": "as §3"}, "[7]": {"settings": "0.1 μM Example 1 combined with 1 μM sorafenib"}}}
{"compound": "Oc1c(Cl)cc(-c2c[nH]c3ncnc(N[C@H]4CC[C@H](O)CC4)c23)cc1Cl", "note": "[Example 1, (trans)-2,6-dichloro-4-(4-(4-hydroxycyclohexylamino)-7H-pyrrolo[2,3-d]pyrimidin-5-yl)phenol]", "values": [{"measurement": "number of apoptotic bodies compared to NC (Negative Control)", "setting": "[1]; T4, T5 and T6 groups, dose dependently", "value": "higher"}, {"measurement": "number of apoptotic body", "setting": "[1]; T4: 5 mg/kg once i.v.", "value": "9.6 ± 4.7"}, {"measurement": "number of apoptotic body", "setting": "[1]; T5: 10 mg/kg once i.v.", "value": "9.2 ± 4.6"}, {"measurement": "number of apoptotic body", "setting": "[1]; T6: 20 mg/kg once i.v.", "value": "13.6 ± 7.4"}, {"measurement": "proportion of CD8+ T cells in tumor", "setting": "[2]; alone", "value": "increased"}, {"measurement": "proportion of CD8+ T cells in tumor compared to each administration alone", "setting": "[2]; combined with radiation", "value": "significantly increased"}, {"measurement": "M1 TAM", "setting": "[3]; alone", "value": "significantly (P<0.01) increased"}, {"measurement": "M1 TAM", "setting": "[3]; combined with radiation", "value": "increase"}, {"measurement": "M2 TAM", "setting": "[4]; alone", "value": "significantly (P<0.01) decreased"}, {"measurement": "M2 TAM", "setting": "[4]; combined with radiation", "value": "decrease"}, {"measurement": "cell viability", "setting": "[5]; [7]", "value": "further inhibited (synergistic effect)"}, {"measurement": "cell viability", "setting": "[5]; 0.1 μM alone", "value": "suppressed"}, {"measurement": "cell viability", "setting": "[6]; [7]", "value": "further inhibited (synergistic effect)"}, {"measurement": "cell viability", "setting": "[6]; 0.1 μM alone", "value": "suppressed"}]}
